Measurements taken from PubChem BioAssay AID330 (DTP/NCI, 2004).
Values joined by “and” are separate entries in the source; they are usually repeats but may differ in a detail not shown here. Identical values can stand only once. Toxic doses and inconclusive results are not listed. How the source made its calls: active means survival T/C of 150% or more; inactive means T/C below 125% in these data.

System: P388 leukemia ip, CD2F1 mice, survival T/C
Test: NCI In Vivo Anticancer Drug Screen. Data for tumor model P388 Leukemia (intraperitoneal) in CD2F1 (CDF1) mice
Details: endpoint: median survival time, higher = longer survival
Method in brief: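 Mice carrying the transplanted tumor received test compound or vehicle. Survival was recorded in each group, and the value is the treated-group measurement divided by that of the vehicle-treated control group.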

[1] = dose: 50.0 mg/kg/injection, schedule: Q01DX009 (ip), vehicle: saline with Tween-80
[2] = dose: 100.0 mg/kg/injection, schedule: Q01DX009 (ip), vehicle: saline with Tween-80
[3] = dose: 200.0 mg/kg/injection, schedule: Q01DX009 (ip), vehicle: saline with Tween-80
[4] = dose: 50.0 mg/kg/injection, schedule: Q01DX005 (ip), vehicle: Klucel (hydroxypropylcellulose) (HPC)
[5] = dose: 100.0 mg/kg/injection, schedule: Q01DX005 (ip), vehicle: Klucel (hydroxypropylcellulose) (HPC)
[6] = dose: 200.0 mg/kg/injection, schedule: Q01DX005 (ip), vehicle: Klucel (hydroxypropylcellulose) (HPC)
[7] = dose: 50.0 mg/kg/injection, schedule: Q01DX009 (ip), vehicle: saline
[8] = dose: 100.0 mg/kg/injection, schedule: Q01DX009 (ip), vehicle: saline
[9] = dose: 200.0 mg/kg/injection, schedule: Q01DX009 (ip), vehicle: saline
[10] = dose: 60.0 mg/kg/injection, schedule: Q01DX005 (ip), vehicle: saline with Tween-80
[11] = dose: 120.0 mg/kg/injection, schedule: Q01DX005 (ip), vehicle: saline with Tween-80
[12] = dose: 240.0 mg/kg/injection, schedule: Q01DX005 (ip), vehicle: saline with Tween-80
[13] = dose: 50.0 mg/kg/injection, schedule: Q01DX005 (ip), vehicle: saline with Tween-80
[14] = dose: 100.0 mg/kg/injection, schedule: Q01DX005 (ip), vehicle: saline with Tween-80

Measured: T/C

CN(c1ccccc1)S(=O)(=O)c1ccc2ccccc2c1O
inactive: dose: 100.0 mg/kg/injection, schedule: Q01DX001 (ip), vehicle: saline with Tween-80 101 % of control | dose: 200.0 mg/kg/injection, schedule: Q01DX001 (ip), vehicle: saline with Tween-80 100 % of control | dose: 400.0 mg/kg/injection, schedule: Q01DX001 (ip), vehicle: saline with Tween-80 91 % of control

O=C(Nc1nccs1)Nc1ccc(Br)cc1C(F)(F)F
inactive: [1] 110 % of control | [2] 113 % of control | [3] 113 % of control

CC(=O)Oc1cc(C)c2c(c1C)C1OC(=O)C(C)C1CC2 (stereo not given)
inactive: [4] 100 % of control | [5] 103 % of control | [6] 98 % of control

Cc1cc(Cl)ccc1O/C(=C/C(=O)O)C(=O)O
inactive: dose: 60.0 mg/kg/injection, schedule: Q01DX005 (ip), vehicle: Klucel (hydroxypropylcellulose) (HPC) 100 % of control and 98 % of control | dose: 120.0 mg/kg/injection, schedule: Q01DX005 (ip), vehicle: Klucel (hydroxypropylcellulose) (HPC) 100 % of control and 95 % of control | dose: 240.0 mg/kg/injection, schedule: Q01DX005 (ip), vehicle: Klucel (hydroxypropylcellulose) (HPC) 101 % of control and 87 % of control

CCOC(=O)C1OC(n2cnc3c(N)ncnc32)C(O)C1O (stereo not given)
inactive: [1] 96 % of control | [7] 103 % of control | [2] 98 % of control | [8] 100 % of control and 106 % of control | [3] 124 % of control | [9] 101 % of control and 106 % of control | dose: 400.0 mg/kg/injection, schedule: Q01DX009 (ip), vehicle: saline with Tween-80 117 % of control | dose: 400.0 mg/kg/injection, schedule: Q01DX009 (ip), vehicle: saline 111 % of control

Cc1cc2c(cc1C)C(=O)c1cc3c(cc1C2=O)OCO3
inactive: [10] 94 % of control | [11] 91 % of control | [12] 89 % of control

O=C(N[C@H](CO)[C@H]1CC(Br)=NO1)C(Cl)(Cl)Cl
inactive: dose: 11.25 mg/kg/injection, schedule: Q01DX005 (ip), vehicle: distilled water + Tween-80 102 % of control | dose: 22.5 mg/kg/injection, schedule: Q01DX005 (ip), vehicle: distilled water + Tween-80 105 % of control | dose: 45.0 mg/kg/injection, schedule: Q01DX005 (ip), vehicle: distilled water + Tween-80 107 % of control | dose: 90.0 mg/kg/injection, schedule: Q01DX005 (ip), vehicle: distilled water + Tween-80 112 % of control

N#C/C=C1\C=CC(O)C(O)C1OC1OC(CO)C(O)C(O)C1O (stereo not given)
inactive: dose: 6.0 mg/kg/injection, schedule: Q01DX009 (ip), vehicle: saline 103 % of control | dose: 12.0 mg/kg/injection, schedule: Q01DX009 (ip), vehicle: saline 103 % of control | dose: 24.0 mg/kg/injection, schedule: Q01DX009 (ip), vehicle: saline 100 % of control | dose: 48.0 mg/kg/injection, schedule: Q01DX009 (ip), vehicle: saline 105 % of control

O=C(Cc1nc2ccccc2n2nnnc12)NCCO
inactive: dose: 100.0 mg/kg/injection, schedule: Q04DX002 (ip), vehicle: Klucel + Tween-80 99 % of control | dose: 200.0 mg/kg/injection, schedule: Q04DX002 (ip), vehicle: Klucel + Tween-80 88 % of control | dose: 400.0 mg/kg/injection, schedule: Q04DX002 (ip), vehicle: Klucel + Tween-80 92 % of control

Cc1nn(C(=S)S)c(C)c1N=Nc1cc(Cl)ccc1Cl
inactive: [13] 100 % of control | [14] 95 % of control | dose: 200.0 mg/kg/injection, schedule: Q01DX005 (ip), vehicle: saline with Tween-80 95 % of control

O=C(CC(NC(=O)OCc1ccccc1)C(=O)O)OCc1ccccc1 (stereo not given)
inactive: dose: 100.0 mg/kg/injection, schedule: Q04DX003 (ip), vehicle: saline sonified 110 % of control | dose: 200.0 mg/kg/injection, schedule: Q04DX003 (ip), vehicle: saline sonified 105 % of control

CCOC(=O)C1=CNc2c(C#N)cnn2C12C(=O)Oc1ccc(OC)cc12 (stereo not given)
inactive: dose: 25.0 mg/kg/injection, schedule: Q01DX005 (ip), vehicle: Klucel (hydroxypropylcellulose) (HPC) 109 % of control | [4] 105 % of control | [5] 105 % of control | [6] 105 % of control

CC1OS(=O)(=O)CS(=O)(=O)OC1C (stereo not given)
inactive: [10] 101 % of control | [11] 101 % of control

O=S(=O)(Cl)C(F)(F)C(F)(F)F
inactive: [7] 100 % of control | [8] 110 % of control | [9] 103 % of control

COC(=O)[C@H]1O[C@H]1c1cc[n+]([O-])cc1
inactive: dose: 25.0 mg/kg/injection, schedule: Q01DX005 (ip), vehicle: water 101 % of control | dose: 50.0 mg/kg/injection, schedule: Q01DX005 (ip), vehicle: water 102 % of control | dose: 100.0 mg/kg/injection, schedule: Q01DX005 (ip), vehicle: water 105 % of control | dose: 200.0 mg/kg/injection, schedule: Q01DX005 (ip), vehicle: water 109 % of control

c1ccc(-c2nc3cc4c(cc3n3cccc23)oc2ccccc24)cc1
inactive: dose: 25.0 mg/kg/injection, schedule: Q01DX005 (ip), vehicle: saline with Tween-80 95 % of control | [13] 100 % of control | [14] 94 % of control

Clc1ccc2c(NCCCCCCCCNc3c4ccccc4nc4cc(Cl)ccc34)c3ccccc3nc2c1
inactive: dose: 0.63 mg/kg/injection, schedule: Q01DX009 (ip), vehicle: other 112 % of control | dose: 1.25 mg/kg/injection, schedule: Q01DX009 (ip), vehicle: other 108 % of control | dose: 2.5 mg/kg/injection, schedule: Q01DX009 (ip), vehicle: other 110 % of control | dose: 3.75 mg/kg/injection, schedule: Q01DX009 (ip), vehicle: other 108 % of control | dose: 5.0 mg/kg/injection, schedule: Q01DX009 (ip), vehicle: other 112 % of control | dose: 7.5 mg/kg/injection, schedule: Q01DX009 (ip), vehicle: other 110 % of control | dose: 10.0 mg/kg/injection, schedule: Q01DX009 (ip), vehicle: other 110 % of control | dose: 15.0 mg/kg/injection, schedule: Q01DX009 (ip), vehicle: other 112 % of control | dose: 20.0 mg/kg/injection, schedule: Q01DX009 (ip), vehicle: other 120 % of control

CC(C)c1cc2c(c(O)c1O)C13CCCC(C)(C)C1CC2OC3=O (stereo not given)
inactive: dose: 7.0 mg/kg/injection, schedule: Q01DX005 (ip), vehicle: saline with Tween-80 113 % of control | dose: 14.0 mg/kg/injection, schedule: Q01DX005 (ip), vehicle: saline with Tween-80 111 % of control | dose: 28.0 mg/kg/injection, schedule: Q01DX005 (ip), vehicle: saline with Tween-80 104 % of control

O=C1CCC(CBr)(C(=O)O)O1 (stereo not given)
inactive: [7] 102 % of control | [8] 111 % of control | [9] 100 % of control

O=C1c2ccccc2C(=O)c2c1cc1c(c2[N+](=O)[O-])OCO1
inactive: dose: 30.0 mg/kg/injection, schedule: Q01DX005 (ip), vehicle: saline with Tween-80 99 % of control and 107 % of control | [10] 99 % of control and 112 % of control and 113 % of control | [11] 99 % of control and 118 % of control and 120 % of control | [12] 118 % of control and 96 % of control

C=C1C(=O)C(CCC)=C(CC)C1O (stereo not given)
inactive: [10] 105 % of control

O=C(CNN1C(=O)CSC1=Nc1cccc2ccccc12)c1cccc2c1Nc1ccccc1S2
inactive: dose: 50.0 mg/kg/injection, schedule: Q01DX009 (ip), vehicle: Klucel (hydroxypropylcellulose) (HPC) 102 % of control | dose: 100.0 mg/kg/injection, schedule: Q01DX009 (ip), vehicle: Klucel (hydroxypropylcellulose) (HPC) 102 % of control | dose: 200.0 mg/kg/injection, schedule: Q01DX009 (ip), vehicle: Klucel (hydroxypropylcellulose) (HPC) 98 % of control

O=C1Oc2ccc3ccccc3c2CC1C(=O)c1ccc(Cl)cc1 (stereo not given)
inactive: [1] 88 % of control | [2] 88 % of control
